Data as given in patent publication US20030050306A1, “Novel heteroaryl derivatives, their preparation and use” (H. Lundbeck A/S, priority 1999, published 2003).
Structures can show the parent of a compound that is named as a salt.

melting point | SMILES
200 to 202 °C | Fc1ccc(SCCN2CCN(c3cccc4c3OCCO4)CC2)cc1 (as salt: oxalate) [Compound 3b, 1-(2,3-Dihydro-benzo[1,4]dioxin-5-yl)-4-[2-(4-fluoro-phenylsulfanyl)-ethyl]-piperazine]
188 to 191 °C (dec.) | Clc1cccc(Cl)c1SCCN1CCN(c2cccc3c2OCCO3)CC1 (as salt: oxalate) [Compound 3d, 1-[2-(2,6-Dichloro-phenylsulfanyl)-ethyl]-4-(2,3-dihydro-benzo[1,4]dioxin-5-yl)-piperazine]
152 to 154 °C | N#Cc1ccc(N2CCN(CCCOc3ccc(F)cc3Br)CC2)c2c1OCCO2 (as salt: oxalate) [Compound 6b, 8-{4-[3-(2-Bromo-4-fluoro-phenoxy)-propyl]-piperazin-1-yl}-2,3-dihydro-benzo[1,4]dioxine-5-carbonitrile]
96 to 98 °C | N#Cc1ccc(N2CCN(CCCOc3ccccc3Cl)CC2)c2c1OCCO2 (as salt: oxalate) [Compound 6c, 8-{4-[3-(2-Chloro-phenoxy)-propyl]-piperazin-1-yl}-2,3-dihydro-benzo[1,4]dioxine-5-carbonitrile]
